Laboratory results from ChEMBL document CHEMBL1177732, “Triterpene saponins from Clematis chinensis and their potential anti-inflammatory activity” (J Nat Prod, 2010).

Assays:
[1] = molecular target: Prostaglandin G/H synthase 1 (Homo sapiens, UniProt P23219); assay: Inhibition of COX1 by microplate reader
[2] = molecular target: T1, Prostaglandin G/H synthase 2 (Homo sapiens, UniProt P35354); assay: Inhibition of COX2 by microplate reader
T1 sequence (P35354 whole entry): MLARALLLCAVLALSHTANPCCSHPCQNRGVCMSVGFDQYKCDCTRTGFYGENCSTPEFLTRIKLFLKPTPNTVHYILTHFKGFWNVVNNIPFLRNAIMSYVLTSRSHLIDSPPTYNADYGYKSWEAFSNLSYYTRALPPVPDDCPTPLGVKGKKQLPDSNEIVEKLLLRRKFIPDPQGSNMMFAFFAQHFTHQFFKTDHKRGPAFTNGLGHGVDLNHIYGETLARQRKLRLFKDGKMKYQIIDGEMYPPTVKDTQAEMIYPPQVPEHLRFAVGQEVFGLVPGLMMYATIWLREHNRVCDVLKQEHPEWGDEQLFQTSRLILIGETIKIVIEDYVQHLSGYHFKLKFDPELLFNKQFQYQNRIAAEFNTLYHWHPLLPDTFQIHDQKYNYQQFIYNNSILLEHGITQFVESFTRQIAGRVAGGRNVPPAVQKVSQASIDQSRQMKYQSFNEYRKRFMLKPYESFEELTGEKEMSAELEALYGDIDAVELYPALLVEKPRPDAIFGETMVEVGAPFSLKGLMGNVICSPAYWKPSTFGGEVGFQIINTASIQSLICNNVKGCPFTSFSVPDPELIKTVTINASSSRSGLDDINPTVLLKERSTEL

Prostaglandin G/H synthase 1, sequence (P23219 whole entry): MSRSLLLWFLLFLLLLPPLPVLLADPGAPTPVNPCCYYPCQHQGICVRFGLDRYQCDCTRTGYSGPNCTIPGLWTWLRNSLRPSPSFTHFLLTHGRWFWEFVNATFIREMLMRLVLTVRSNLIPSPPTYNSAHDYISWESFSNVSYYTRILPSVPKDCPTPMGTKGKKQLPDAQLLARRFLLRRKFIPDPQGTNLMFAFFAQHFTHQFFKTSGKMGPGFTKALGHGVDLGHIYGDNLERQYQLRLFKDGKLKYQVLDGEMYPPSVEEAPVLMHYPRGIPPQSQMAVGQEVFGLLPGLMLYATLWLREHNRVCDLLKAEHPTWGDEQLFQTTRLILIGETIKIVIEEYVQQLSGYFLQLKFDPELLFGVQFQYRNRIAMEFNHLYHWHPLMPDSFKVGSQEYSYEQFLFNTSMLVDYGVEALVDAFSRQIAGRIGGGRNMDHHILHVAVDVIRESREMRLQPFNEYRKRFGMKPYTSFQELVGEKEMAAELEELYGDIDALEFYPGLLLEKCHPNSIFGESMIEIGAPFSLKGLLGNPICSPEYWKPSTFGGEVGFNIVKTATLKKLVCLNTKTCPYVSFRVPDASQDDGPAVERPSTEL

For `C[C@@H]1O[C@@H](O[C@H]2[C@H](O)[C@@H](O)[C@H](OC[C@H]3O[C@@H](OC(=O)[C@]45CCC(C)(C)C[C@H]4C4=CC[C@@H]6[C@@]7(C)CC[C@H](O[C@@H]8OC[C@H](O)[C@H](O)[C@H]8O)C(C)(C)[C@@H]7CC[C@@]6(C)[C@]4(C)CC5)[C@H](O)[C@@H](O)[C@@H]3O)O[C@@H]2CO)[C@H](O)[C@H](O)[C@H]1O` [CIWUJIANOSIDE C3], the IC50 [1] was > 50 µM and the IC50 [2] was > 50 µM.
